Structures can show the parent of a compound that is named as a salt. A value given as a limit tells only on which side of the number the result lay.

Series [1] can be described thus: Shelf life comparison, salts left exposed to air for a month. It is filed as physicochemical. The source says:
FIG. 1 depicts a comparison of hexylamine succinate and hexylamine tartrate after being left exposed to air for a period of a month.
Hexylamine succinate and hexylamine tartrate were left exposed for a period of a month.

Series [2] has as its system human subjects. It is filed as in vivo. Here is the method: Five human subjects were given 100-600 mg hexylamine succinate each day over a period of a month or four weeks (see Table 1).
Over the course of the treatment period, two of the subjects who ingested hexylamine daily experienced a weight loss of 3 pounds without making any changes to their diet or exercise regimen. With the administration of 600 mg hexylamine succinate (equaling 276 mg of hexylamine base), the subjects' body temperature would rise by about 0.5° C.
None of the subjects experienced any of the toxic side effects described for too much exposure hexylamine, which include, burning sensation, abdominal pain, shock, or collapse. However, the effectiveness would diminish with doses less than 100 mg.

The nature of series [3]: Storage of hexylamine succinate in the atmosphere, water gain. It is filed as physicochemical. The following applies: over one week of storage. Here is the method:
Hexylamine succinate (structure shown in Formula II) was effectively synthesized by pouring an equimolar amount of hexylamine into succinic acid powder while continuously stirring in an ice bath so that the temperature of the salt solution would be […].

The nature of series [4]: Pharmacotechnical properties of synthesized hexylamine salts (state, hygroscopicity, solubility, dissolution, stability).
The test system of the next series is human subject. As to the kind of experiment: Human tolerance of hexylamine succinate. Type of series: in vivo. Conditions: one subject, 250 lbs, daily dose increased from 100 mg. The method, then: A human subject (250 lbs) was administered a single 100 mg hexylamine succinate, and their tolerance to the salt was record. The daily dose was increased increased daily to determine the highest daily dose that could be tolerance by the subject. At a daily dose of 800 mg and higher, the subject reported side effects such as feelings of discomfort.

For series [5], the system named is human subjects. As to the kind of experiment: Psychomotor vigilance test via sleep-2-Peak mobile application. It is filed as in vivo. Conditions: 1000 mg oral vs placebo, p=0.0015. The text has this:
Statistically significant results were obtained from the cognitive function tests.

For series [6], the system named is human subjects. As to the kind of experiment: Effect of tri-hexylamine citrate on physical performance. Type of series: in vivo. The following applies: four subjects, 1000 mg 30 minutes before exercise. Here is the method: Four human subjects ingested 1000 mg tri-hexylamine citrate 30 minutes before performing their regular exercise.
The subject of series [7] is human subjects. As to the kind of experiment: Activity of hexylamine salt forms on human subjects. Type of series: in vivo. The following applies: taken as a capsule, compared with other salts of hexylamine.
Series [8] is described as follows: Time course of tri-hexylamine citrate in water. It is filed as physicochemical. The following applies: one gram scattered over 100 ml water at room temperature. The method, then:
FIG. 3 depicts a time course of tri-hexylamine citrate in water. One gram of tri-hexylamine citrate was scattered over 100 ml water at room temperature (left). About one minute after, all of the tri-hexylamine citrate was dissolved (right).

For series [9], the system named is human subjects.
The nature of series [10]: Citrate salts left exposed to air for one day. It is filed as physicochemical. The source says: FIG. 2 depicts a comparison of monohexylamine citrate and tri-hexylamine citrate after being left exposure to air for one day.
The test system of series [11] is human subjects. As to the kind of experiment: Administration of […] and caffeine, caffeine side effects. Conditions: same subjects, 300 mg caffeine alone.
The conditions of series [12]: cited from earlier work.
Series [13] in a line: Organoleptic properties and contact irritation of hexylamine and its salts.
Series [14] concerns human subjects. As to the kind of experiment: Iowa trail making test. Conditions: 1000 mg tri-hexylamine citrate oral vs placebo. It is filed as in vivo. The source says: The Iowa trail making test assesses visual attention and task switching. In map A, the subject is to draw lines to connect circled numbers in a numerical sequence (1-2-3- . . . ) as rapidly in possible. In map B, the subject is to draw lines to connect circled numbers and letters in an alternating numeric and alphabetic sequence (1-A-2-B- . . . ) as rapidly as possible. Accordingly, map A assesses cognitive processing speed, while map B asses executive function. If the subject makes an error, it was immediately pointed it out and the subject was allowed correct it. Accordingly, errors affect the score only in that the correction of errors is included in the completion time for the task. […] Thus, hexylamine administration improves executive function.

For a further series, the system named is human. The following applies: cited from earlier work.
For series [15] the following is noted: standard temperature and pressure; cited from earlier work.
The nature of series [16]: Physiological effects of propylamine and amylamine. It is filed as in vivo. The following applies: doses starting at 300 mg. The text has this:
Propylamine, […], a close chemical entity to hexylamine, has been used in the distant past as a sedative at doses of 2-10 grams (Page 892 of The Standard Medical Directory of North America 1902, GP Engelhard and Company, Chicago). […] Accordingly, compound having similar structure to hexylamine were expected to reduce alertness and cognitive function due to their sedative effects (from de facto slowdown of brain activity).

Where [17] appears, read: five subjects, 100-600 mg each day for a month.

For `CCCCCCN.O=C(O)CCC(=O)O` [Hexylamine succinate], the “state of the powder and moisture uptake” value in series [1] is “remained a fine powder and gained little moisture”. Moreover, the “rise of body temperature” value in the series with human subjects [2] (600 mg hexylamine succinate (276 mg hexylamine base)) was “about 0.5 °C”. Further, in the series on human subjects [2] (setting [17]), the appetite entry was “reduced appetite”, the athletic performance result is given as “increase in athletic performance”, the body temperature entry is recorded as “increased body temperature” and the endurance result is reported as “increase in endurance”. Besides, in the series on human subjects [2] (setting [17]), the fatigue result is recorded as “reduction of fatigue”; the heart rate entry was “increase in heart rate”; the “increase in diastolic blood pressure, average” value was determined as 2 mm; the “increase in systolic blood pressure, average” value turned out to be 8 mm. Besides, in the series on human subjects [2] (setting [17]), the memory recollection entry was “improved memory recollection”, the mental acuity entry is listed as “increased mental acuity”, the mood result is “improved mood” and the strength result is listed as “increase in strength”. Further, the sweating result in the series on human subjects [2] (setting [17]) was “increased sweating”. In series [3], the hygroscopicity entry was “non-hygroscopic” and the “water gained in the atmosphere” value is listed as “less than 1%”. In [4], the hygroscopicity entry was “non-hydroscopic”; the solubility in water entry was “good solubility and dissolution rate”. For the same molecule, the “daily dose at which side effects such as feelings of discomfort were reported” value in the series on human subject is listed as at least 800 mg.

On to `CCCCCCN` [tri-hexylamine citrate], for which, in the series with human subjects [5], the “change of average reaction time” value is -70.1 ms and the “reduction of average reaction time” value came out at 18%. Further, in the series on human subjects [6], the “focus and energy, self-reported” value is “feeling more focused and energetic”; the “sense of fatigue during and after exercise” value is reported as “reduced sense of fatigue”. In the series on human subjects [6] (vs no supplement), the “repetitions on knee extensions and bench press” value is recorded as “greater number of repetitions”; the “time to exhaustion on the treadmill” value was “longer time to exhaustion”. The onset of effect entry with human subjects [7] was “has a faster effect on human subjects”. Further, the “time until all was dissolved” value in series [8] was “About one”. In addition, in the series with human subjects [9] (1000 mg oral vs placebo), the “diastolic pressure, group” value is recorded as “no significant difference”; the “heart rate, group” value is “no significant difference”; the “systolic blood pressure, group” value is listed as “no significant difference”. In the series with human subjects [9] (1000 mg oral vs placebo, scale 1-10), the self-mood assessment test result is “did not show any statistically significant results”. For the same molecule, the blood pressure result with human subjects [9] (1000 mg oral vs placebo, up to 50 minutes after administration) is given as “largely unaffected”. Besides, the “state of the salt” value in series [10] is on record as “suffered from some caking”. In series [4], the “dissolution rate in water” value is listed as “dissolves faster than all other salts of hexylamine in water” and the “stability of the salt” value is listed as “very stable salt”.

For the molecule `Cn1c(=O)c2c(ncn2C)n(C)c1=O` [caffeine], the “jittery sensation or caffeine crash” value in the series on human subjects [11] was “experience at leas tone of these side effects”.

Consider `CCCN` [Propylamine], for which, in series [12] (doses of 2-10 grams (Standard Medical Directory of North America 1902)), the physiological use entry is on record as “sedative”.

As for `O=[N+]([O-])O` [nitrate], the “effect on contact with skin, tongue or mouth” value in [13] is listed as “very irritating on contact with the skin or mouth”.

As for `CCCCCCN.O=C(O)CC(O)(CC(=O)O)C(=O)O` [mono-hexylamine citrate], the “state of the salt” value in series [10] is “hardened into a solid mass”. Also, in series [4], the “dissolution rate in water” value is given as “much slower dissolution rate in water” and the hygroscopicity result was “very hygroscopic”.

Take `CCCCCCN` [Hexylamine]: the “average completion time, map A” value in the series with human subjects [14] (not statistically significant) was “reduced the average time”. The “change of average completion time, map B” value with human subjects [14] (p=0.0020) was -12.5 s. For the same molecule, in the series with human (Phytochemical Dictionary, second edition), the toxicity label entry is “highly toxic in any quantity”. Further, in the series on human (administered to a human (Alles 1941)), the “blood pressure and other physiological effects” value is given as “no change in blood pressure or any other physiological effect was observed”. Further, in the series with human subjects [2] (five subjects, none had toxic side effects (burning sensation, abdominal pain, shock, collapse)), the tolerability entry is on record as “generally well-tolerated”. Besides, the “dose below which the effectiveness would diminish” value in the series with human subjects [2] (human, in vivo) was “less than 100 mg”. In the series on human subjects [2] (two of the subjects, daily ingestion over the treatment period, no change of diet or exercise), this molecule had a weight loss of 3 pounds. Moreover, the “discomfort or serious side effects” value in the series on human subjects [9] (twelve healthy subjects, 1000 mg oral, blinded crossover vs placebo) is given as “None of the subjects experienced any discomfort or any serious side effect”. In addition, the “solubility in organic solvents” value in [15] is “soluble in almost all organic solvents”.

On to `CCCCCN` [amylamine, Amylamine], for which, in series [16], the body temperature entry is “a drop in body temperature” and the heart rate result was “reduction in heart rate”. In addition, the “cardiac function, heartbeat and body temperature” value in series [12] (King's American Dispensatory 1909) is “reduce cardiac function, reduce heartbeat, and reduce body temperature”.

For the molecule `CCCCCCN.O=C(O)C(O)C(O)C(=O)O` (stereo not shown) [hexylamine tartrate], the “state of the powder and moisture uptake” value in series [1] is “absorbed moisture from the atmosphere and suffered from extensive caking”.

The values above are taken from patent US12533327B2, “Hexylamine salts and methods of using hexylamine” (priority 2019, dated 2026).
